# Source: patent US9745314B2, “MDM2 inhibitors and therapeutic methods using the same” (THE REGENTS OF THE UNIVERSITY OF MICHIGAN, priority 2014, dated 2017)
# Read-outs that look alike come from different tables or passages of the source.
# Tests used:
# SJSA-1 cells = experiment: Cell growth assay (WST-8), SJSA-1; format: cell-based, human; details: for IC50: Homo sapiens, SJSA-1, 96 h, 4 days
# SJSA-1 xenograft tumors = experiment: In vivo efficacy in SJSA-1 xenograft model; set-up: species or system C.B-17 SCID mice; details: for anti-tumor activity in mice bearing SJSA-1 xenograft tumors (in words): FIG. 2B
# Protocol: In Vivo Efficacy Studies Using SJSA-Xenograft Models
# SJSA-1 (osteosarcoma) tumor cells were harvested with Trypsin (0.05%)-EDTA (0.53 mM) (GIBCO™, Invitrogen Corp.), growth medium was added, and the cells were placed on ice. A cell sample was mixed 1:1 with Trypan Blue (GIBCO™, Invitrogen Corp.) and counted on a hemocytometer to determine the number of live/dead cells. Cells were washed once with 1×PBS (GIBCO™, Invitrogen Corp.) and resuspended in PBS. For Matrigel injections, after washing in PBS, cells are resuspended in an ice cold mixture of 1:1 PBS and Matrigel (BD Biosciences, Invitrogen Corp.) for a final Matrigel protein concentration of 5 mg/ml. SJSA-1 tumors were inoculated into C.B-17 SCID mice at 5×10^6 cells in 0.1 ml with Matrigel. Cells were injected s.c. into the flank region of each mouse using a 27 gauge needle.
# The size of tumors growing in the mice was measured in two dimensions using calipers. Tumor volume (mm^3)=(A×B^2)/2 where A and B are the tumor length and width (in mm), respectively. During treatment, tumor volume and body weight was measured three times a week. After the treatment was stopped, tumor volume and body weight was measured at least once a week. Mice were kept for an additional 60 days for further observation of tumor growth and toxicity. The anti-tumor activity of compound No. 8 (administered via oral gavage) at different doses and according to different dosing schedules, including weekly for 3 weeks (qw*3 wks), every other day for 3 weeks, daily for 3 days out of a week for 3 weeks (qd1-3/w*3 wks), and daily for 2 weeks (qd*14 d), is shown in FIG. 3.
# [1] = biological target: T1, recombinant human His-tagged MDM2 protein (residues 1-118) (Homo sapiens, UniProt Q00987); experiment: Fluorescence-polarization MDM2 competitive binding assay; details: for Ki: MDM2 (FP binding assay) Ki(nM), competitive FP
# HCT116 p53 WT = experiment: Cell growth assay (WST-8), HCT116 p53 WT; format: cell-based; details: Homo sapiens, HCT-116, 96 h, 4 days
# [2] = tested on: HCT116 p53 deleted (HCT116 p53−/−); experiment: Cell growth assay (WST-8), HCT116 p53 deleted; format: cell-based; details: Homo sapiens, HCT-116, 96 h, 4 days
# [3] = biological target: T1, recombinant human His-tagged MDM2 protein (residues 1-118); experiment: biochemical
# Saos2 = experiment: Cell growth assay (WST), Saos2; format: cell-based; details: Homo sapiens, SAOS-2, 96 h, Osteosarcoma, p53 null, 4 days, read-out: Cell Growth Inhibition (IC50) Saos2
# RS4; 11 = experiment: Cell growth assay (WST), RS4;11; format: cell-based; details: Homo sapiens, RS4-11, 96 h, Leukemia, p53 wild-type, 4 days, read-out: Cell Growth Inhibition (IC50) RS4
# LNCaP = experiment: Cell growth assay (WST), LNCaP; format: cell-based; details: Homo sapiens, 96 h, Prostate cancer, p53 wild-type, 4 days, read-out: Cell Growth Inhibition (IC50) LNCaP
# PC3 = experiment: Cell growth assay (WST), PC3; format: cell-based; details: Homo sapiens, PC-3, 96 h, Prostate cancer, p53 null, 4 days, read-out: Cell Growth Inhibition (IC50) PC3
# ZR-75-1 = experiment: Cell growth assay (WST), ZR-75-1; format: cell-based; details: Homo sapiens, ZR-75-1, 96 h, Breast cancer, p53 wild-type, 4 days, read-out: Cell Growth Inhibition (IC50) ZR-75-1
# Protocol: Cells were seeded in 96-well flat bottom cell culture plates at a density of 2-3×10^3 cells/well with compounds and incubated for 4 days. […] 92037, USA).
# [4] = Microsomal stability, mouse; format: in vitro ADME; details: mouse microsomes; read-out: Microsomal stability T1/2 (min) Mouse
# [5] = Microsomal stability, rat; format: in vitro ADME; details: rat microsomes; read-out: Microsomal stability T1/2 (min) Rat
# [6] = Microsomal stability, dog; format: in vitro ADME; details: dog microsomes; read-out: Microsomal stability T1/2 (min) Dog
# [7] = Microsomal stability, human; format: in vitro ADME; details: human microsomes; read-out: Microsomal stability T1/2 (min) Human
# [8] = Oral pharmacokinetics in Sprague-Dawley rats; details: rat, in vivo, 25 mg/kg oral
# [9] = Stability of compounds in solution (UPLC); format: physicochemical; details: FIG. 1; 1:1 CH3CN/H2O, 1:1 MeOH/H2O, cell culture media
# Protocol: Stability of Compounds in Solution
# The stability of the compounds were determined in 1:1 MeOH:H2O, 1:1 CH3CN:H2O, and cell culture medium using ultra performance liquid chromatography.
# [10] = WST-8, read-out: Cell Growth Inhibition IC50 (μM) SJSA-1
# [11] = WST-8, read-out: Cell Growth Inhibition IC50 (μM) HCT116 p53 WT
# [12] = WST-8, read-out: Cell Growth Inhibition IC50 (μM) HCT116 p53 deleted
# [13] = Osteosarcoma, p53 wild-type, WST assay, read-out: Cell Growth Inhibition (IC50) SJSA-1
# [14] = Colon cancer, p53 wild-type, WST assay, read-out: Cell Growth Inhibition (IC50) HCT116
# [15] = Colon cancer, p53 knock-out, WST assay, read-out: Cell Growth Inhibition (IC50) HCT116 p53−/−
binding affinity to MDM2 (in words) [1],IC50 (SJSA-1 cells; [10]),IC50 (HCT116 p53 WT; [11]),"IC50 [2, 12]",IC50 [3],half-life [4],half-life [5],half-life [6],half-life [7],AUC(0-inf) [8],AUC(0-t) [8],Tmax [8],half-life [8],Ki [1],SMILES,cell growth inhibition in SJSA-1 cells (in words) (SJSA-1 cells),IC50 (ZR-75-1),anti-tumor activity in mice bearing SJSA-1 xenograft tumors (in words) (SJSA-1 xenograft tumors),also measured
high binding affinity,,,,,,,,,,,,,,"O=C(O)c1ccc(NC(=O)[C@@H]2NC3(CCCCC3)[C@@]3(C(=O)Nc4cc(Cl)ccc43)[C@H]2c2cccc(Cl)c2F)cc1 [AA-MI-061, reference compound]",potent cell growth inhibition,,,"tumor regression (SJSA-1 xenograft tumors; 100 mg/kg, once, daily dosing, SCID mice bearing SJSA-1 xenografts (FIG. 2A)): 90%"
high binding affinity,0.48 µM,3.7 µM,12.6 µM,0.0054 µM,,,,,,,,,,O=C(NC12CC(C(=O)O)(C1)C2)[C@@H]1NC2(CCCCC2)[C@@]2(C(=O)Nc3cc(Cl)ccc32)[C@H]1c1cccc(Cl)c1F [Cpd No. 1],reduced potency,,,
high binding affinity,0.089 ± 0.033 µM,0.137 ± 0.031 µM,14 ± 2 µM,0.0052 µM,> 60 min,> 60 min,> 60 min,> 60 min,74.3 ± 5.26 µg·h/mL,73.6 ± 5.02 µg·h/mL,3.33 ± 1.15 h,4.29 ± 0.371 h,,O=C(NC12CCC(C(=O)O)(CC1)CC2)[C@@H]1NC2(CCCCC2)[C@@]2(C(=O)Nc3cc(Cl)ccc32)[C@H]1c1cccc(Cl)c1F [Cpd No. 2],potent cell growth inhibition activity,0.677 ± 0.252 µM,only modest anti-tumor activity,"IC50 (SJSA-1 cells; [13]): 0.089 ± 0.033 µM; IC50 (HCT116 p53 WT; [14]): 0.137 ± 0.031 µM; IC50 [2, 15]: 14 ± 2 µM; IC50 (Saos2): 26.7 ± 5.1 µM; IC50 (RS4; 11): 0.062 ± 0.026 µM; IC50 (LNCaP): 0.036 ± 0.019 µM; IC50 (PC3): 12.3 ± 2.5 µM; Cmax [8]: 8.23 ± 0.278 µg/mL"
,0.165 µM,,,0.0088 µM,,,,,,,,,< 1 nM,O=C(NC12CCC(C(=O)O)(CC1)CC2)[C@@H]1NC2(CCC(F)(F)CC2)[C@@]2(C(=O)Nc3cc(Cl)ccc32)[C@H]1c1cccc(Cl)c1F [Cpd No. 3],,,,
,0.373 µM,,,0.0079 µM,,,,,,,,,,CS(=O)(=O)NC(=O)C12CCC(NC(=O)[C@@H]3NC4(CCCCC4)[C@@]4(C(=O)Nc5cc(Cl)ccc54)[C@H]3c3cccc(Cl)c3F)(CC1)CC2 [Cpd No. 4],,,,
,,,,0.131 µM,,,,,,,,,30 nM,CC1(O)CCC2(CC1)N[C@@H](C(=O)NC13CCC(C(=O)O)(CC1)CC3)[C@H](c1cccc(Cl)c1F)[C@]21C(=O)Nc2cc(Cl)ccc21 (some centres unmarked) [Cpd No. 5],,,,
,,,,0.0073 µM,,,,,,,,,< 1 nM,CC1(O)CCC2(CC1)N[C@@H](C(=O)NC13CCC(C(=O)O)(CC1)CC3)[C@H](c1cccc(Cl)c1F)[C@]21C(=O)Nc2cc(Cl)ccc21 (some centres unmarked) [Cpd No. 6],,,,
high binding affinity,0.06 ± 0.022 µM,0.104 ± 0.036 µM,8 ± 1 µM,,> 60 min,> 60 min,> 60 min,> 60 min,39.5 ± 8.52 µg·h/mL,39.1 ± 8.47 µg·h/mL,4 h,4.61 ± 1.35 h,,CCN1[C@@H](C(=O)NC23CCC(C(=O)O)(CC2)CC3)[C@H](c2cccc(Cl)c2F)[C@]2(C(=O)Nc3cc(Cl)ccc32)C12CCCCC2 [Cpd No. 8],,0.462 ± 0.036 µM,complete and persistent tumor regression,"IC50 (SJSA-1 cells; [13]): 0.06 ± 0.022 µM; IC50 (HCT116 p53 WT; [14]): 0.104 ± 0.036 µM; IC50 [2, 15]: 8 ± 1 µM; IC50 (Saos2): 22.7 ± 4.7 µM; IC50 (LNCaP): 0.018 ± 0.013 µM; IC50 (PC3): 22 ± 7.2 µM; stability in solutions (in words) [9]: stable in solutions"
,0.173 ± 0.031 µM,0.266 ± 0.127 µM,9 ± 1 µM,0.0052 µM,,,,,,,,,< 1 nM,CN1[C@@H](C(=O)NC23CCC(C(N)=O)(CC2)CC3)[C@H](c2cccc(Cl)c2F)[C@]2(C(=O)Nc3cc(Cl)ccc32)C12CCCCC2 [Cpd No. 9],,,,

SMILES,binding affinity to MDM2 (in words) [1],IC50 (SJSA-1 cells; [10]),IC50 (HCT116 p53 WT; [11]),"IC50 [2, 12]",IC50 [3],half-life [4],half-life [5],half-life [6],half-life [7],AUC(0-inf) [8],AUC(0-t) [8],Tmax [8],half-life [8],Ki [1],cell growth inhibition in SJSA-1 cells (in words) (SJSA-1 cells),IC50 (ZR-75-1),anti-tumor activity in mice bearing SJSA-1 xenograft tumors (in words) (SJSA-1 xenograft tumors),also measured
CN1[C@@H](C(=O)NC23CCC(C(=O)O)(CC2)CC3)[C@H](c2cccc(Cl)c2F)[C@]2(C(=O)Nc3cc(Cl)ccc32)C12CCCCC2 [Cpd No. 7],high binding affinity,,,,,> 60 min,> 60 min,> 60 min,> 60 min,35.4 ± 15.5 µg·h/mL,35.2 ± 15.2 µg·h/mL,4 h,3.89 ± 1.02 h,,,0.713 ± 0.165 µM,complete and persistent tumor regression,stability in solutions (in words) [9]: stable in solutions
